{"source": "patent US10428140B2", "about": "“Anti-EphA4 antibody” (EISAI R&D MANAGEMENT CO., LTD., priority 2015, dated 2019)", "target": "T1, mouse EphA4 (binding to mouse Ephrin A1) (Mus musculus, UniProt Q03137)", "T1 construct": "made in house; host or cells: HEK293EBNA cells", "T1 sequence (Q03137 with tags, fused parts or gaps)": "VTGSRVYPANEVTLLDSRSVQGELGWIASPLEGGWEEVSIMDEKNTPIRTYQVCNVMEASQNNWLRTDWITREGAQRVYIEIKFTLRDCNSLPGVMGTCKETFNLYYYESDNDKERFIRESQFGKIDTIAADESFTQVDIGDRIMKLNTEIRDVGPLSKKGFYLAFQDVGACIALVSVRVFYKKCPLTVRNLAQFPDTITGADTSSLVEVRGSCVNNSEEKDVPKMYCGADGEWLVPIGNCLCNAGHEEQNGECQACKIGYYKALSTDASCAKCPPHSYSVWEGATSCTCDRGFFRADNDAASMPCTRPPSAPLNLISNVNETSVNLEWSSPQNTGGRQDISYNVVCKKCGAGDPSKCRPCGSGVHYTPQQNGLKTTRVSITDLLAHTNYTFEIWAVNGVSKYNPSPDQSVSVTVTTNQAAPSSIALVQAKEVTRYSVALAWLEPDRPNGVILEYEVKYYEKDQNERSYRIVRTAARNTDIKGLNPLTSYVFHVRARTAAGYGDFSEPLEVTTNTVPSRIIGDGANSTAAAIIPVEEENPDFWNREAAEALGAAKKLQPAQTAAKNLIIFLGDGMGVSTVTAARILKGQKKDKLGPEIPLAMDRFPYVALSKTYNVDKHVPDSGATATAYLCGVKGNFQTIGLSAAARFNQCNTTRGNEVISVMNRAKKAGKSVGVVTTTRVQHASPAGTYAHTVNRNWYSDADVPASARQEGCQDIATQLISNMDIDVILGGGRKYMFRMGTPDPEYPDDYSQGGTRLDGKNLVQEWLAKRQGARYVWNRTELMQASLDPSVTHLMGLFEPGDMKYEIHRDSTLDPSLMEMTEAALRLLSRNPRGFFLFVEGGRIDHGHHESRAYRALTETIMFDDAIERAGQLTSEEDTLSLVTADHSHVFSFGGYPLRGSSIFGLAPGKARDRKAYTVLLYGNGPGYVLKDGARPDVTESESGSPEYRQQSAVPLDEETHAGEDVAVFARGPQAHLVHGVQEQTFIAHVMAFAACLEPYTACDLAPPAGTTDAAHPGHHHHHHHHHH", "experiment": "Mouse EphA4-mouse ligand binding inhibition ELISA (Ephrin A1-Fc)", "details": "mouse Ephrin A1 and Ephrin B2; 0.03-1000 μM", "method": "Antibody A obtained in Example 1 was evaluated for its inhibitory activity against the binding between mouse EphA4 and its mouse ligand according to the following steps. Each well of a 96-well plate (Nunc) was coated with an anti-alkaline phosphatase antibody (Thermo Fisher Scientific). After incubation overnight at 4° C., each well was blocked with 1% BlockAce (DS Pharma Biomedical) at room temperature for 1 hour. After washing with 0.05% Tween 20/PBS (Thermo Fisher Scientific) three times, the mouse EphA4 extracellular region-SEAP-His protein obtained by the method of Example 1 was added (final concentration: 10 nM) to each well and incubated at room temperature for 1 hour. After washing three times, ligands and serially diluted antibody A (0, 0.001, 0.003, 0.01, 0.03, 0.1, 0.3, 1,3, 10, 30, 100, 300, and 1000 nM) or a known EphA4 inhibitor KYL peptide (KYLPYWPVLSSL, 0, 0.003, 0.01, 0.03, 0.1, 0.3, 1, 3, 10, 30, and 100 μM, its synthesis was outsourced to Hokkaido System Science) or compound 1 (0, 0.03, 0.1, 0.3, 1,3, 10, 30, 100, 300, and 1000 μM, Formula 1, Matrix Scientific) were added to each well. The ligands used were mouse Ephrin A1-Fc chimera (R&D Systems, final concentration: 20 nM) and mouse Ephrin B2-Fc chimera (R&D Systems, final concentration: 0.6 nM). […] The absorbance at 450 nm was read using a microplate reader (Molecular Devices).", "data": [{"smiles": "Cc1ccc(C)n1-c1ccc(C(=O)O)c(O)c1", "note": "[Compound 1, reference compound]", "values": [{"measurement": "inhibition of binding between mouse EphA4 and mouse ligand (in words)", "result": "weaker activity, and no concentration dependence was found"}]}]}
